Source: patent US20250009709A1, “PRENYLATED CHALCONE AND FLAVONOID COMPOSITIONS FOR USE IN TREATING CANCER” (INNOX CORP., priority 2021, published 2025)

System: pCrkl
Assay: pCrkl level in K562-IS cells
Type: cell-based
Details: 1000 nM imatinib, data not shown
Description: The effect of the drug substance on chronic myelogenous leukemic (CML) cells was tested using a K562 cell line model.

Cc1ccc(NC(=O)c2ccc(CN3CCN(C)CC3)cc2)cc1Nc1nccc(-c2cccnc2)n1 [imatinib] was tested, and the “pCrkl level in comparison with non-treated controls” value was “did not significantly change”.
